≈ marks a conversion by molar mass, not a printed value.
How the values were obtained:
Test in all cases: in vitro agar dilution test (NCCLS), MIC
Assay type in all cases: cell-based
E. coli Neumann = conditions: Escherichia coli, inoculation density 10^4 per inoculation point
Description: (§1) In the in vitro agar dilution test according to the internationally customary test (American National Committee for Clinical Laboratory Standards=NCCLS), activity is found against the germs listed below.
(§2) The minimum inhibitory concentration (MIC) was determined by the agar dilution procedure, using an inoculator and an inoculation density of 10^4 per inoculation point. The MIC is the concentration at which no bacteria colonies grow.

Klebs. 57 USA = conditions: inoculation density 10^4 per inoculation point
Description: as §1, §2

Staph. epid. 25185 = conditions: inoculation density 10^4 per inoculation point
Description: as §1, §2

Serratia 16001 = conditions: inoculation density 10^4 per inoculation point
Description: as §1, §2

Structure (SMILES) | MIC (E. coli Neumann) [µg/mL] | MIC (Klebs. 57 USA) [µg/mL] | MIC (Staph. epid. 25185) [µg/mL] | MIC (Serratia 16001) [µg/mL]
Cn1c(=NC(N)=O)ccn(C2SC(C(O)C(NC(=O)C(N)CO)C(=O)O)C(O)C2O)c1=O (stereo not shown) [1 X = NCONH2] | 32 (≈ 67.2 µM) | 4 (≈ 8.4 µM) | 64 (≈ 134 µM) | –
Cn1c(=O)ccn(C2SC(C(O)C(NC(=O)C(N)CO)C(=O)O)C(O)C2O)c1=O (stereo not shown) [1 X = O] | – | – | – | 128 (≈ 295 µM)
